Several values for one entry are separate records, joined by “and”; a condition that tells them apart may be missing. Equal entries are not always repeated. Where two headings read alike, the source gives them in different places.
Columns and labels:
[1] = Chemical stability in simulated gastric fluid (SGF); type: physicochemical; details: SGF without enzymes, pH=1,4; 10 µm; 2 hours at 37°C; substance amount in % after thermostatting
Summary of the method: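 Compounds at […] (diluted from DMSO stock) were incubated for 2 h at 37 °C in enzyme-free simulated gastric fluid, pH=1,4. HPLC peak areas before and after incubation gave the % of compound remaining.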

[2] = Chemical stability in human blood plasma; type: in vitro ADME; details: pooled human blood plasma; 10 µM; 4 hours at 37°C; substance amount in % after thermostatting
Summary of the method: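 Pooled plasma from ten healthy human donors; compound diluted from 10 mM DMSO stock to 10 µm final and incubated 4 h at 37°C. After acetonitrile protein precipitation, HPLC peak areas before and after incubation were compared; value is % compound remaining.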

[3] = Enzyme stability in human liver microsomes; type: in vitro ADME; details: pH 7.4; 0,5 mg/mL pooled human liver microsomes; 10 µM compound; 37°C; pH=7,4
Summary of the method: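 Pooled human liver microsomes (0,5 mg/mL) incubated at 37 °C with 10 µM compound, 2 mM β-NAD and 4 mM MgCl2 in 0,1 M sodium phosphate, pH 7,4. Samples quenched with acetonitrile and analysed by HPLC. Elimination rate constant taken from the slope of log peak area versus time, giving t1/2 and CLint.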

[4] = Permeability through Caco-2 cell monolayer; type: in vitro ADME; details: human, Caco-2; for Papp A→B at 2 h, 10 µM: A->B transfer, pH 6.5 -> pH 7.4, 2 hours at 37 °C; for efflux ratio at 2 h, 10 µM: efflux = Papp B-A / Papp A-B
Description: Estimation of permeability through Caco-2 cell monolayer enables assessment of the ability of the substances to penetrate through biological membranes by means of both active and passive transport.
Intestinal epithelial cells Caco-2 were grown on filter inserts (pore size 0.4 µm, BD Falcon with High Density) for 21 days; monolayer integrity was then checked using Lucifer Yellow (Sigma-Aldrich, USA) according to the standard protocol. In A->B transfer ("intestinal lumen" - "blood stream" transfer), solutions of the test substances in buffer, pH 6.5 (HBSS, 10 mM HEPES, 15 mM glucose) at a concentration of 10 µM were added to the upper chamber; whereas the lower chamber was filled with buffer, pH 7.4 (HBSS, 10 mM HEPES, 15 mM Glucose, 1% BSA). In B->A transfer ("blood stream" - "intestinal lumen" transfer), the upper chamber was filled with buffer, pH 6.5, whereas the solutions of the test substances in buffer, pH 7.4, at a concentration of 10 µM were added to the lower chamber. A highly permeable substance propranolol was used as a control.
After 2 hours incubation at 37 ° C under an atmosphere containing 5% CO2, the amounts of the test substances in the upper and lower chambers were measured by HPLC using an Agilent1200 HPLC system (Agilent, USA), proteins were preliminarily precipitated with acetonitrile. Chromatographic analysis was performed in a gradient elution regime with a flow rate of 1 mL/min. The peak areas corresponding to the compounds were detected on chromatograms.
The value was calculated using the formula: efflux = Papp B−A /Papp A−B , [formula] where • Papp A-E - the value of permeability direct analysis A→ B; • Papp B-A - the value of the permeability of the reverse analysis B→ A.

[5] = General cytotoxicity test on HepG2 cells; type: cell-based; details: human, 72 h incubation, 200 to 0.78 µM, average values of several tests, read-out: Hep-G2 CC50, mkM
Description: Cell viability was assessed using the above method. Table 6. […] The results are presented as average values of activity obtained in several tests.

KG-1 = assay: Cell-based antiproliferative test (AlamarBlue), KG-1; details: Homo sapiens, KG-1; 120 h incubation; average values of several tests; read-out: KG-1 IC50, mkM
Description: (§1) Antiproliferative activity of CDK8 inhibitors according to the present invention was measured in a cell-based test on continuous cell cultures MV4-11 (biphenotypic myelomonocytic leukemia, ATCC® CRL-9591™), KG-1 (acute myeloid leukemia, ATCC® CCL-246™), HL-60 (acute promyelocytic leukemia, ATCC® CCL-240™) using a vital stain AlamarBlue (ThermoFisher, #DAL1100). The cells were grown in RPMI-1640 (PanEco, #C330p) medium with addition of 10% FBS (Gibco, #16140-071); washed and resuspended in culture medium with 10% FBS (Gibco, #16140-071) in 96-well culture plates (Corning, #3599) with ≈ 10 ×10^3 cells in […] of medium per well. The compounds in question were dissolved in DMSO and diluted with a medium with 10% FBS (Gibco, #16140-071) to a final concentration ranging form 0 to 100 µM. […] of diluted compounds were then added to each well (final DMSO concentration was less than 1%) and incubated under 5% CO2 atmosphere at 37°C for 120 h. After incubating, 15 µL of AlamarBlue (ThermoFisher, #DAL1100) reagent was added per well, contents of plates were mixed in an orbital shaker (Biosan, Latvia) and further incubated for 3-5 h at 37°C under 5% CO2 atmosphere. Number of living cells was estimated using a microplate spectrophotometer (Tecan Infinite M200Pro, Switzerland) measuring fluorescent signal at the excitation wavelength (λEx) of 540 nm and emission wavelength (λEm) of 590 nm.
(§2) IC50 was calculated using Magellan 7.2 software (Tecan, Switzerland) approximating experimental points by four-parameter logistic model with the optimization by Levenberg-Marquardt (table 7, table 7).

HL-60 = assay: Cell-based antiproliferative test (AlamarBlue), HL-60; details: 120 h incubation, average values of several tests, read-out: HL-60 IC50, mkM
Description: as §1, §2

MV4-11 = assay: Cell-based antiproliferative test (AlamarBlue), MV4-11; details: Homo sapiens, MV4-11, 120 h, 120 h incubation; average values of several tests; read-out: MV-4-11 IC50, mkM

## O=C(C1CN(c2ccc3ncn(-c4ccc(-c5cn[nH]c5)cc4)c3c2F)C1)N1CCOCC1 [CDK8-1-14, (1-(1-(4-(1H-Pyrazol-4-yl)phenyl)-7-fluoro-1H-benzo[d]imidazol-6-yl)azetidin-3-yl)(morpholino)methanone]
[1]
  Stability in SGF, %: 92.5% and 100%
[2]
  Stability in blood plasma, %: 100%
[3]
  microsomal CLint at 10 µM: 12.4 µL/min/mg
[4]
  Papp A→B at 2 h, 10 µM: 39.9 ×10⁻⁶ cm/s
  efflux ratio at 2 h, 10 µM: 0.79
[5]; HepG2 cells
  CC50 at 72 h: > 100 µM
[5]
  CC50 at 72 h: > 50 µM
KG-1
  IC50: 23.2 µM
HL-60
  IC50: 60.7 µM
HL-60; Homo sapiens, HL-60, 120 h
  IC50: 33.9 µM

## COc1cc(-c2cnc3[nH]cc(C(=O)c4cccnc4)c3c2)ccc1N1CCOCC1 [CDK8-4-27, (5-(3-Methoxy-4-morpholinophenyl)-1H-pyrrolo[2,3-b]pyridin-3-yl) (pyridin-3-yl) methanone]
[1]
  Stability in SGF, %: 100%
[2]
  Stability in blood plasma, %: 100%
[3]
  microsomal CLint at 10 µM: 7.2 µL/min/mg
[4]
  Papp A→B at 2 h, 10 µM: 84.6 ×10⁻⁶ cm/s
  efflux ratio at 2 h, 10 µM: 0.25
MV4-11
  IC50: 0.05 µM
[5]; HepG2 cells
  CC50 at 72 h: > 100 µM
KG-1
  IC50: 5.21 µM
HL-60; Homo sapiens, HL-60, 120 h
  IC50: > 100 µM

## COc1cccc(C(=O)c2c[nH]c3ncc(-c4ccc(N(C)C)cc4)cc23)c1 [CDK8-4-34, (5-(4-(Dimethylamino)phenyl)-1H-pyrrolo[2,3-b]pyridin-3-yl) (3-methoxyphenyl) methanone]
[1]
  Stability in SGF, %: 99.5%
[2]
  Stability in blood plasma, %: 100%
[3]
  microsomal CLint at 10 µM: 24.2 µL/min/mg
MV4-11
  IC50: 0.14 µM
[5]; HepG2 cells
  CC50 at 72 h: 2.6 µM
KG-1
  IC50: 0.2 µM
HL-60; Homo sapiens, HL-60, 120 h
  IC50: 0.081 µM

## Cn1cc(-c2ccc(-n3cnc4ccc(C(=O)N5CCC5)cc43)cc2)cn1 [CDK8-1-18, Azetidin-1-yl(1-(4-(1-methyl-1H-pyrazol-4-yl)phenyl)-1H-benzo[d]imidazol-6-yl) methanone]
[1]
  Stability in SGF, %: 100%
[2]
  Stability in blood plasma, %: 100%
[3]
  microsomal CLint at 10 µM: 14.6 µL/min/mg
MV4-11
  IC50: 4.8 µM
[5]; HepG2 cells
  CC50 at 72 h: > 100 µM
KG-1
  IC50: 2.13 µM
HL-60; Homo sapiens, HL-60, 120 h
  IC50: > 100 µM

## COC1CN(C(=O)c2cnc3cncc(-c4ccc(-c5cnn(C)c5)cc4)c3c2)C1 [CDK8-3-15, (3-Methoxyazetidin-1-yl)(5-(4-(1-methyl-1H-pyrazol-4-yl)phenyl)-1,7-naphthyridin-3-yl) methanone]
[1]
  Stability in SGF, %: 99.3%
[2]
  Stability in blood plasma, %: 75.1%
[3]
  microsomal CLint at 10 µM: 15.2 µL/min/mg
MV4-11
  IC50: 2.45 µM
[5]; HepG2 cells
  CC50 at 72 h: > 100 µM
KG-1
  IC50: 1.13 µM
HL-60; Homo sapiens, HL-60, 120 h
  IC50: > 60 µM

## Cn1cc(-c2ccc(-c3ccc4nccc(C(=O)N5CCCCC5)c4c3)cc2)cn1 [CDK8-5-8, (6-(4-(1-Methyl-1H-pyrazol-4-yl)phenyl)quinolin-4-yl) (piperidin-1-yl)methanone]
[1]
  Stability in SGF, %: 100%
[2]
  Stability in blood plasma, %: 98.2%
MV4-11
  IC50: 3.73 µM
[5]; HepG2 cells
  CC50 at 72 h: > 50 µM
KG-1
  IC50: 17.5 µM
HL-60; Homo sapiens, HL-60, 120 h
  IC50: 24.8 µM

## NC(=O)c1ccc(-n2cnc3ccc(N4CC(C(=O)Nc5ccccc5)C4)cc32)cc1 [CDK8-1-6, 1-(1-(4-Carbamoylphenyl)-1H-benzo[d]imidazol-6-yl)-N-phenylazetidine-3-carboxamide]
[1]
  Stability in SGF, %: 98.9%
[2]
  Stability in blood plasma, %: 100%
[3]
  microsomal CLint at 10 µM: 23.4 µL/min/mg
MV4-11
  IC50: 1.64 µM
[5]; HepG2 cells
  CC50 at 72 h: > 100 µM
KG-1
  IC50: > 10 µM
HL-60; Homo sapiens, HL-60, 120 h
  IC50: 8.18 µM

## O=C(c1ccc2ncn(-c3ccc(-c4cn[nH]c4)cc3)c2c1)N1CCC1 [CDK8-1-5, (1-(4-(1H-Pyrazol-4-yl)phenyl)-1H-benzo[d]imidazol-6-yl)(azetidin-1-yl) methanone]
[1]
  Stability in SGF, %: 99.5%
[2]
  Stability in blood plasma, %: 98.1%
MV4-11
  IC50: 1.24 µM
[5]; HepG2 cells
  CC50 at 72 h: 81.1 µM
KG-1
  IC50: 4.71 µM
HL-60; Homo sapiens, HL-60, 120 h
  IC50: > 60 µM

## Cn1cc(-c2ccc(-c3cncc4ncc(C(=O)N5CCCC5)cc34)cc2)cn1 [CDK8-3-16, (5-(4-(1-Methyl-1H-pyrazol-4-yl)phenyl)-1,7-naphthyridin-3 - yl)(pyrrolidin-1-yl) methanone]
[1]
  Stability in SGF, %: 100%
[2]
  Stability in blood plasma, %: 100%
[3]
  microsomal CLint at 10 µM: 27.8 µL/min/mg
MV4-11
  IC50: 2.87 µM
[5]; HepG2 cells
  CC50 at 72 h: > 100 µM
KG-1
  IC50: 0.94 µM
HL-60; Homo sapiens, HL-60, 120 h
  IC50: > 60 µM

## Cn1cc(-c2ccc(-c3ccnc4ccc(N5CCCC5=O)cc34)cc2)cn1 [CDK8-6-13, 1-(4-(4-(1-Methyl-1H-pyrazol-4-yl)phenyl)quinolin-6-yl) pyrrolidin-2-one]
[1]
  Stability in SGF, %: 99.7%
[2]
  Stability in blood plasma, %: 98.9%
[3]
  microsomal CLint at 10 µM: 22.6 µL/min/mg
MV4-11
  IC50: 19.7 µM
[5]; HepG2 cells
  CC50 at 72 h: > 200 µM
KG-1
  IC50: 12.3 µM
HL-60; Homo sapiens, HL-60, 120 h
  IC50: > 60 µM

## Cn1cc(-c2ccc(-c3cncc4ncc(N5CCCC5=O)cc34)cc2)cn1 [CDK8-3-17, 1-(5-(4-(1-Methyl-1H-pyrazol-4-yl)phenyl)-1,7-naphthyridin-3-yl)pyrrolidin-2-one]
[1]
  Stability in SGF, %: 100%
[2]
  Stability in blood plasma, %: 100%
[3]
  microsomal CLint at 10 µM: 10.7 µL/min/mg
MV4-11
  IC50: 8.85 µM
[5]; HepG2 cells
  CC50 at 72 h: > 20 µM
KG-1
  IC50: 3.93 µM
HL-60; Homo sapiens, HL-60, 120 h
  IC50: 46.5 µM

— patent EP3666770A1, “NOVEL HETEROCYCLIC COMPOUNDS AS CDK8/19 INHIBITORS” (Joint Stock Company "Biocad", priority 2017, dated 2019)
